{"source": "paper PMC8225628", "about": "“Bispecific repurposed medicines targeting the viral and immunological arms of COVID-19” (Scientific Reports, 2021)", "key": {"SARS-CoV-2 PL^pro": {"biological_target": "SARS-CoV-2 PL^pro (Severe acute respiratory syndrome coronavirus 2, UniProt P0DTD1)", "experiment": "biochemical", "settings": "for inhibition at 10 µM: read-out: PL^pro % inhibition at 10 µM"}, "HUH7 cells": {"system": "HUH7 cells", "settings": "HUH7 cells, 4 days"}, "SARS-CoV-2": {"system": "SARS-CoV-2", "experiment": "Antiviral assay, inhibition of SARS-CoV-2 cytopathic effect in HUH7_mCherry cells", "settings": "HUH7 cells, at 100 µM", "protocol": "To measure inhibition of the SARS-CoV-2 cytopathic effect, 96-well plates (Corning 3300) were plated with HUH7_mCherry cells at 6000 cells/well in 100 µl. The day after (Day 0), compound was added in a dilution series for concentration response studies. After two hours, addition of virus dilution (final MOI 0.004) was performed and plates were left for incubation at 37 °C, 5% CO2 for four days.\nAt day four post-infection, mCherry signal was captured using wide field fluorescence imaging by exciting at 560_25 nm and emitting with the BGRFRN filter set. A 5 X objective sufficed to capture 65–70% of an entire well on a 96well plate (4 pictures in total). The optimal exposure time was determined based on fluorescence intensity and was set on 0.09 s. A 2 × 2 binning was used and autofocus plane count was reduced to increase image acquisition speed. An image analysis protocol was developed in-house by using the SpotDetector bioapplication (Cellomics, Thermofisher). After background reduction on the raw image files, a fixed fluorescent intensity threshold was determined for the identification of mCherry cells. Afterwards, the number of fluorescent cells (‘object count’) was calculated per well and compared to the positive (cell control) and negative (virus) control."}, "SARS-CoV-2 M^pro": {"biological_target": "SARS-CoV-2 M^pro (Severe acute respiratory syndrome coronavirus 2, UniProt P0DTD1)", "experiment": "biochemical", "settings": "ReFRAME hits; for inhibition at 10 µM: read-out: M^pro % inhibition at 10 µM; for IC50: >5e-6 = not potent enough to determine an IC50, read-out: M^pro IC50"}, "[1]": {"settings": "ReFRAME hits, >5e-6 = not potent enough to determine an IC50, read-out: PL^pro IC50"}, "[2]": {"settings": "SARS-CoV-2 PL^pro, range in brackets, read-out: IC50 (µM) (range)"}}, "note": "Several values for one entry are separate records, joined by “and”; a condition that tells them apart may be missing. Identical values can stand only once. Like-named read-outs stand apart in the source and are kept apart here. *1 amine or outer side, *2 acyl side, *3 side chain or, on linkers, in order; H or OH if unused. Where a SMILES comes first, the peptide text is derived from it. Bridges are numbered along the chain shown (N, C = ends). [ ]: non-standard residue; d: D form. The star is where a group is joined. hTyr(3S-OH,4S-OH,3'-OSO3H) = N[C@H](C(=O)O)[C@H](O)[C@@H](O)c1ccc(O)c(OS(=O)(=O)O)c1; Orn(4R-OH,5R-OH) = O=C([C@H](C[C@@H](O)[C@@H](O)N[*:3])N[*:1])[*:2]; Pro(3S-OH,4S-Me) = C[C@H]1CN[C@H](C(=O)O)[C@H]1O; X1 = CCCCCOc1ccc(-c2cc(-c3ccc(C(=O)*)cc3)no2)cc1; Gln(3R-OH) = NC(=O)C[C@@H](O)[C@H](N)C(=O)O; Hyp = O=C(O)[C@@H]1C[C@@H](O)CN1"}
{"molecule": "CN1CCCN=C1/C=C/c1cccc(O)c1", "note": "[oxantel (pamoate), reference compound]", "values": [{"measurement": "IC50", "setting": "SARS-CoV-2 PL^pro; [1]", "result": "> 5", "unit": "µM"}]}
{"molecule": "CC(=O)[O][Hg][c]1cc(C(C)(C)CC(C)(C)C)ccc1O", "note": "[acetomeroctol]", "values": [{"measurement": "PL^pro % inhibition at 10 µM", "setting": "SARS-CoV-2 PL^pro", "result": 7, "unit": "%"}, {"measurement": "IC50", "setting": "SARS-CoV-2 PL^pro; read-out: PL^pro IC50", "result": "> 5", "unit": "µM"}]}
{"molecule": "CCCCCOc1ccc(-c2cc(-c3ccc(C(=O)N[C@H]4C[C@@H](O)[C@@H](O)NC(=O)[C@@H]5[C@@H](O)[C@@H](C)CN5C(=O)[C@H]([C@H](O)CC(N)=O)NC(=O)[C@H]([C@H](O)[C@@H](O)c5ccc(O)c(OS(=O)(=O)[O-])c5)NC(=O)[C@@H]5C[C@@H](O)CN5C(=O)[C@H]([C@@H](C)O)NC4=O)cc3)no2)cc1.[Na+]", "note": "[micafungin Sodium, reference compound] (X1-[Orn(4R-OH,5R-OH)]T[Hyp][hTyr(3S-OH,4S-OH,3'-OSO3H)][Gln(3R-OH)][Pro(3S-OH,4S-Me)]; lactam 1-C)", "values": [{"measurement": "PL^pro % inhibition at 10 µM", "setting": "SARS-CoV-2 PL^pro; ReFRAME hits, 10 µM", "result": 24, "unit": "%"}, {"measurement": "IC50", "setting": "SARS-CoV-2 PL^pro; [1]", "result": "> 5", "unit": "µM"}]}
{"molecule": "CN(C)C/C=C/C(=O)Nc1cc2c(Nc3ccc(F)c(Cl)c3)ncnc2cc1O[C@H]1CCOC1", "note": "[Compound 11, Afatinib, reference compound]", "values": [{"measurement": "IC50", "setting": "SARS-CoV-2 PL^pro; [2]", "result": 12, "unit": "µM"}]}
{"molecule": "teicoplanin [reference compound]", "values": [{"measurement": "PL^pro % inhibition at 10 µM", "setting": "SARS-CoV-2 PL^pro; ReFRAME hits, 10 µM", "result": "88% and 81%"}]}
{"molecule": "[(-)-epicatechin]", "values": [{"measurement": "PL^pro % inhibition at 10 µM", "setting": "SARS-CoV-2 PL^pro; ReFRAME hits, 10 µM", "result": 16, "unit": "%"}, {"measurement": "IC50", "setting": "SARS-CoV-2 PL^pro; [1]", "result": "> 5", "unit": "µM"}]}
{"molecule": "O=C(NCc1ccccn1)C(=O)C(Cc1ccccc1)NC(=O)C1CCC(=O)N1Cc1ccccc1", "note": "(stereo not drawn) [Compound 1]", "values": [{"measurement": "Concentration up to which non-cytotoxic", "setting": "HUH7 cells", "result": "up to 100 µM"}, {"measurement": "Antiviral effect", "setting": "SARS-CoV-2", "result": 75, "unit": "%"}]}
{"molecule": "(-)-epicatechin gallate", "values": [{"measurement": "PL^pro % inhibition at 10 µM", "setting": "SARS-CoV-2 PL^pro; ReFRAME hits, 10 µM", "result": 11, "unit": "%"}, {"measurement": "IC50", "setting": "SARS-CoV-2 PL^pro; [1]", "result": "> 5", "unit": "µM"}]}
{"molecule": "CC(C)(C)NC(=O)N[C@H](C(=O)N1C[C@H]2[C@@H]([C@H]1C(=O)NC(CC1CCC1)C(=O)C(N)=O)C2(C)C)C(C)(C)C", "note": "(stereo partly drawn) [Boceprevir, reference compound]", "values": [{"measurement": "inhibition at 10 µM", "setting": "SARS-CoV-2 M^pro", "result": 62, "unit": "%"}, {"measurement": "inhibition at 10 µM", "setting": "SARS-CoV-2 PL^pro; ReFRAME hits, 10 µM", "result": -2, "unit": "%"}]}
{"molecule": "COc1cc2ncnc(Nc3ccc(F)c(Cl)c3)c2cc1NC(=O)/C=C/CN1CCCCC1", "note": "[Compound 12, Dacomitinib, reference compound]", "values": [{"measurement": "IC50", "setting": "SARS-CoV-2 PL^pro; [2]", "result": 4, "unit": "µM"}]}
{"molecule": "O=C(N/N=C/c1ccc([N+](=O)[O-])o1)c1cc([N+](=O)[O-])cc([N+](=O)[O-])c1O", "note": "[nifursol]", "values": [{"measurement": "inhibition at 10 µM", "setting": "SARS-CoV-2 M^pro", "result": 43, "unit": "%"}, {"measurement": "inhibition at 10 µM", "setting": "SARS-CoV-2 PL^pro; ReFRAME hits, 10 µM", "result": 23, "unit": "%"}, {"measurement": "IC50", "setting": "SARS-CoV-2 PL^pro; read-out: PL^pro IC50", "result": "> 5", "unit": "µM"}]}
{"molecule": "O=C1OC2(c3ccccc31)c1cc(I)c(O)c(I)c1Oc1c2cc(I)c(O)c1I", "note": "[erythrosine]", "values": [{"measurement": "inhibition at 10 µM", "setting": "SARS-CoV-2 M^pro", "result": 58, "unit": "%"}, {"measurement": "IC50", "setting": "SARS-CoV-2 PL^pro", "result": "> 5", "unit": "µM"}, {"measurement": "inhibition at 10 µM", "setting": "SARS-CoV-2 PL^pro; ReFRAME hits, 10 µM", "result": 20, "unit": "%"}]}
{"molecule": "CN(C/C=C/C#CC(C)(C)C)Cc1cccc2c(F)cc(F)cc12", "note": "[SDZ-880-540]", "values": [{"measurement": "M^pro % inhibition at 10 µM", "setting": "SARS-CoV-2 M^pro", "result": -1, "unit": "%"}, {"measurement": "IC50", "setting": "SARS-CoV-2 M^pro", "result": "> 5", "unit": "µM"}, {"measurement": "PL^pro % inhibition at 10 µM", "setting": "SARS-CoV-2 PL^pro; ReFRAME hits, 10 µM", "result": 15, "unit": "%"}, {"measurement": "IC50", "setting": "SARS-CoV-2 PL^pro; [1]", "result": "> 5", "unit": "µM"}]}
{"molecule": "Nc1nc(N)nc(Nc2ccc([As]3SC(C(=O)O)C(C(=O)O)S3)cc2)n1", "note": "(stereo not drawn) [MELARSONYL]", "values": [{"measurement": "PL^pro % inhibition at 10 µM", "setting": "SARS-CoV-2 PL^pro", "result": 11, "unit": "%"}, {"measurement": "IC50", "setting": "SARS-CoV-2 PL^pro; read-out: PL^pro IC50", "result": "> 5", "unit": "µM"}]}
{"molecule": "Cl.Cl.Cl.Cl.N=C(N)NCCCCC(=O)Nc1cc(C(F)(F)F)cc(NC(=O)c2cc(C(=O)Nc3cc(C(F)(F)F)cc(NC(=O)CCCCNC(=N)N)c3O[C@@H]3CCNC3)ncn2)c1O[C@@H]1CCNC1", "note": "[PMX-30063]", "values": [{"measurement": "M^pro % inhibition at 10 µM", "setting": "SARS-CoV-2 M^pro", "result": 11, "unit": "%"}, {"measurement": "IC50", "setting": "SARS-CoV-2 M^pro", "result": "> 5", "unit": "µM"}, {"measurement": "PL^pro % inhibition at 10 µM", "setting": "SARS-CoV-2 PL^pro; ReFRAME hits, 10 µM", "result": 30, "unit": "%"}, {"measurement": "IC50", "setting": "SARS-CoV-2 PL^pro; [1]", "result": 2, "unit": "µM"}]}
{"molecule": "CCC[C@@H](NC(=O)N1C(=O)C(CC)(CC)[C@@H]1Oc1ccc(CC(=O)O)cc1)c1ccc(C)cc1", "note": "[L 680833]", "values": [{"measurement": "M^pro % inhibition at 10 µM", "setting": "SARS-CoV-2 M^pro", "result": 36, "unit": "%"}, {"measurement": "IC50", "setting": "SARS-CoV-2 M^pro", "result": "> 5", "unit": "µM"}, {"measurement": "PL^pro % inhibition at 10 µM", "setting": "SARS-CoV-2 PL^pro; ReFRAME hits, 10 µM", "result": 11, "unit": "%"}, {"measurement": "IC50", "setting": "SARS-CoV-2 PL^pro; [1]", "result": "> 5", "unit": "µM"}]}
